Reference: US7119077B1, “Multimeric forms of members of the steroid/thyroid superfamily of receptors with the ultraspiracle receptor” (The Salk Institute for Biological Studies, priority 1990, dated 2006)
“Also recorded” adds a separate entry of the source.

Assays:
EcR/usp [1] = biological target: T1, EcR/usp (Drosophila melanogaster, UniProt P34021); assay: Cotransfection CAT reporter assay with EcR and/or usp expression vectors in CV1 cells; assay type: cell-based, monkey kidney cells (CV1); conditions: CV1 cells transfected with EcR alone, ΔMTV-EcRE5-CAT reporter, 40 μM
T1 construct: expressed in transfected cells; host or cells: CV1 monkey kidney cells
T1 sequence (P34021 1-878): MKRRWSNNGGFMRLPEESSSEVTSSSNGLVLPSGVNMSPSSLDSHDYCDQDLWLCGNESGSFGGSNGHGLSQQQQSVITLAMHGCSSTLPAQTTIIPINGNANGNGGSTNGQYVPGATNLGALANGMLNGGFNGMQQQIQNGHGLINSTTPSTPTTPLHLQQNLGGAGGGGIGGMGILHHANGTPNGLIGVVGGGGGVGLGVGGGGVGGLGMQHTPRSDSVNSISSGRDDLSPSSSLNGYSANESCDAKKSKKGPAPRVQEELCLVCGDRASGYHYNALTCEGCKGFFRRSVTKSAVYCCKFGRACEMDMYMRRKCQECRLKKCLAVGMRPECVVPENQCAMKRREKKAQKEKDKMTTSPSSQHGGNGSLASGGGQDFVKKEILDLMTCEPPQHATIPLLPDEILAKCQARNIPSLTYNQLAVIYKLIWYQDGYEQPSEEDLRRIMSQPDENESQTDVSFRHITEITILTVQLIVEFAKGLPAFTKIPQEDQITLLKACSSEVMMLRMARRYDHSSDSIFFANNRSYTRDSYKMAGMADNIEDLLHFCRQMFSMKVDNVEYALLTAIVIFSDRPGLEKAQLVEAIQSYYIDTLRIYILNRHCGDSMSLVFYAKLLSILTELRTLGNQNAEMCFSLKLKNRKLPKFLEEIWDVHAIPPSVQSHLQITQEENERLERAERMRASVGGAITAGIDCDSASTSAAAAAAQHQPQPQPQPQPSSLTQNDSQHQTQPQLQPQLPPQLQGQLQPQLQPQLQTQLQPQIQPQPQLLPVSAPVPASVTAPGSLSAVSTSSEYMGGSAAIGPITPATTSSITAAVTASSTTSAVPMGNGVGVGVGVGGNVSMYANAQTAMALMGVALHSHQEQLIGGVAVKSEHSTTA
Procedure: (§1) Transfection was performed with calcium-phosphate precipitation method as described previously [Umesono et al., Nature 336:262–264 (1989)]. CV1 monkey kidney cells were maintained in Dulbecco's modified Eagle's medium (DMEM) supplemented with 10% calf bovine serum. The cells were transfected for 8–9 hours and then the DNA precipitates were washed away and replaced with fresh medium with 10% charcoal-resin double stripped fetal bovine serum. 20-hydroxy-ecdysone (Sigma; 10 mg/ml in ethanol), or ethanol alone was then given to the cells. 24–28 hours later, the cells were harvested. Beta-galactosidase (βGal) activity was measured and a normalized amount of extract was used for CAT assay (Umesono et al. (1989) supra]. The following amount of plasmid DNA was included in the 10 cm plate transfection: 250 ng each of CMX-EcR and RSV-GEcR; 500 ng of CMX-usp; 5 μg ΔMTV-EcRE5-CTA; 5 μg of βGal internal control plasmid CH111 (a derivative of CH110, Promega). The amount of CMX plasmid was kept constant in each transfection by adding CMX-luciferase. PGEM4 was added to bring the total amount of plasmid DNA to 15 μg per plate.
(§2) Ecdysone response in CV1 cells was determined by using an ecdysone-responsive reporter gene (ΔMTV-EcRE5-CAT), which contains the same core hsp27-EcRE motif tested in DNA binding assay described earlier. The chloramphenicol acetyl transferase (CAT) activity induced by ecdysone was measured in the presence of different combinations of transfected EcR and usp expression vectors. CAT activity is expressed in FIG. 2 as the percentage of conversion which is normalized against the level in EcR alone at the presence of ecdysone assigned as one (column 1, shaded rectangle). The final concentration of 20-hydroxy-ecdysone (Sigma) is 40 μM. […] Cotransfection of EcR and usp together is shown in column 3 and the induction of CAT activity could be observed by about 3 fold.
(§3) To test whether usp can complement the EcR activity as it did in the DNA binding assay, usp expression vector was cotransfected with EcR into CV1 cells. Cotransfection of usp with EcR indeed was able to confer a significant response to 20-OH-ecdysone (over 3 fold, FIG. 2A). […] The level of induction by EcR and usp in CV1 cells is significant but somewhat lower than expected compared with the interaction in DNA binding assay.

EcR/usp [2] = assay: as above; assay type: cell-based, monkey kidney cells (CV1); conditions: 40 μM
Procedure: as §1, §2, §3

20-Hydroxyecdysone [20-OH-ecdysone]
ecdysone responsiveness (CAT activity) (EcR/usp [1]): does not respond | ecdysone responsiveness (CAT activity) (EcR/usp [1]; listed as 20-hydroxy-ecdysone): failed to confer responsiveness | ecdysone responsiveness (CAT activity) (EcR/usp [2]; CV1 cells transfected with usp alone, ΔMTV-EcRE5-CAT reporter): does not respond; also recorded: did not result in ecdysone responsiveness | ecdysone responsiveness (CAT activity) (EcR/usp [2]; CV1 cells, parental ΔMTV-CAT reporter without EcRE): did not result in ecdysone responsiveness | ecdysone responsiveness (CAT activity) (EcR/usp [2]; CV1 cells, parental ΔMTV-CAT reporter without EcRE, listed as ecdysone): does not respond
